# Values of other authors as cited in patent US20110166112A1, “METHOD FOR STIMULATING PLATELET PRODUCTION” (Eisai, Inc., priority 2009, published 2011).
# Test system: subjects
# Conditions: in eight days; cited from earlier work
smiles,measurement,value
CC1=NN(c2ccc(C)c(C)c2)C(=O)/C1=N\Nc1cccc(-c2cccc(C(=O)O)c2)c1O.NCCO.NCCO [Promacta®],"subjects who achieved a platelet response of 50,000/mm^3",44-62%
